Data published in BigSolDB 2.1.

O=C(O)c1ccccc1Nc1ccccc1
solubility (mole fraction)
Conditions	in acetone	in acetonitrile	in ethanol	in ethyl acetate	in isopropanol	in methanol	in n-butanol	in n-propanol	in toluene
283.15 K	0.019	0.00147	0.00703	0.012	0.00593	0.00331	0.00849	0.00734	0.00238
285.65 K	0.0202	0.00171	0.00768	0.0133	0.00692	0.00381	0.00972	0.00831	0.00275
288.15 K	0.0223	0.00197	0.00854	0.0156	0.00805	0.00439	0.0112	0.00975	0.00321
290.65 K	0.0252	0.00228	0.00958	0.0182	0.00933	0.00521	0.013	0.0114	0.00374
293.15 K	0.0279	0.00268	0.0112	0.0213	0.0107	0.0061	0.0147	0.0132	0.00439
295.65 K	0.0304	0.00311	0.013	0.0235	0.0124	0.00723	0.0167	0.0152	0.00502
298.15 K	0.0335	0.00373	0.0152	0.0267	0.0144	0.00825	0.0187	0.0172	0.00573
300.65 K	0.0361	0.00425	0.0171	0.0301	0.0164	0.00944	0.0209	0.0194	0.00648
303.15 K	0.0399	0.00491	0.0196	0.034	0.0184	0.0106	0.0233	0.0216	0.00742
305.65 K	0.0427	0.00556	0.0219	0.0373	0.0208	0.0119	0.0256	0.0239	0.00841
308.15 K	0.0465	0.00617	0.0249	0.0414	0.0232	0.0129	0.0283	0.0266	0.0096
310.65 K	0.0499	0.00695	0.0276	0.0458	0.0254	0.0145	0.0311	0.0292	0.0109
313.15 K	0.0537	0.0078	0.0311	0.0503	0.0281	0.0164	0.0338	0.0322	0.0124
315.65 K	0.0582	0.00892	0.0339	0.0555	0.0309	0.0186	0.0367	0.035	0.014
318.15 K	0.063	0.0102	0.0374	0.0604	0.034	0.0212	0.0396	0.0383	0.0155
